Experimental data published in paper PMC9570109, “Improved Trimethylangelicin Analogs for Cystic Fibrosis: Design, Synthesis and Preliminary Screening” (International Journal of Molecular Sciences, 2022).
“Also recorded” adds a separate entry of the source.

Tests used:
[1] = tested on: salmon testes DNA; assay: Photoadduct formation with DNA under UVA irradiation (TLC analysis); conditions: 15 J/cm2 UVA
Method: The total energy that struck the sample was monitored by means of a radiometer (Variocontrol, Waldmann, Villingen-Schwenningen, Germany), equipped with a Variocontrol UV Sensor (Waldmann). The radiant power emitted by the UVA lamp was about […]. The samples were maintained at room temperature during irradiation.
The test compounds were dissolved in ethanol (2 mg/mL) and salmon testes DNA (Sigma-Aldrich) was dissolved in 10 mM NaCl and 1 mM EDTA solution (1.5 × 10^−3 M). Each test solution (250 μL) was added dropwise to the DNA solution (5 mL). The mixture was irradiated with 15 J/cm2 UVA light in a glass dish for 1 h. After irradiation, the DNA was precipitated with 1 M NaCl and two volumes of cold ethanol; the precipitated DNA was collected, washed with 80% ethanol, dried, and then dissolved in water. To obtain hydrolysis, the final solution was acidified with 1 M HCl, heated at 100 °C for 1 h, neutralized with NaOH and extracted three times with chloroform. Then, all of the organic layers were collected, dried under a high vacuum, and dissolved in ethanol. The hydrolyzed mixtures were separated by thin layer chromatography (TLC; F254 plates, 0.25 mm, Merck, Darmstadt, Germany) eluting with EtOAc/EtOH (9:1). The plates were analyzed with a Mineral Light Lamp VL-4LC VILBERT-LOURMAT (Vilber, Marne-la-Vallée, France).

[2] = target: T1, F508del CFTR (Homo sapiens, UniProt P13569, DEL508-508); assay: F508del CFTR functional rescue (corrector) HS-YFP single-cell assay; assay type: cell-based; conditions: CFBE41o- YFP-F508del cells; for F508del CFTR rescue (corrector) activity: 48 h incubation, 200 nM
T1 construct: expressed in transfected cells; host or cells: CFBE41o- cells overexpressing F508del CFTR and HS-YFP (YFP-H148Q/I152L), a gift from N. Pedemonte, Gaslini Institute
T1 sequence (P13569 with tags, fused parts or gaps DEL508-508): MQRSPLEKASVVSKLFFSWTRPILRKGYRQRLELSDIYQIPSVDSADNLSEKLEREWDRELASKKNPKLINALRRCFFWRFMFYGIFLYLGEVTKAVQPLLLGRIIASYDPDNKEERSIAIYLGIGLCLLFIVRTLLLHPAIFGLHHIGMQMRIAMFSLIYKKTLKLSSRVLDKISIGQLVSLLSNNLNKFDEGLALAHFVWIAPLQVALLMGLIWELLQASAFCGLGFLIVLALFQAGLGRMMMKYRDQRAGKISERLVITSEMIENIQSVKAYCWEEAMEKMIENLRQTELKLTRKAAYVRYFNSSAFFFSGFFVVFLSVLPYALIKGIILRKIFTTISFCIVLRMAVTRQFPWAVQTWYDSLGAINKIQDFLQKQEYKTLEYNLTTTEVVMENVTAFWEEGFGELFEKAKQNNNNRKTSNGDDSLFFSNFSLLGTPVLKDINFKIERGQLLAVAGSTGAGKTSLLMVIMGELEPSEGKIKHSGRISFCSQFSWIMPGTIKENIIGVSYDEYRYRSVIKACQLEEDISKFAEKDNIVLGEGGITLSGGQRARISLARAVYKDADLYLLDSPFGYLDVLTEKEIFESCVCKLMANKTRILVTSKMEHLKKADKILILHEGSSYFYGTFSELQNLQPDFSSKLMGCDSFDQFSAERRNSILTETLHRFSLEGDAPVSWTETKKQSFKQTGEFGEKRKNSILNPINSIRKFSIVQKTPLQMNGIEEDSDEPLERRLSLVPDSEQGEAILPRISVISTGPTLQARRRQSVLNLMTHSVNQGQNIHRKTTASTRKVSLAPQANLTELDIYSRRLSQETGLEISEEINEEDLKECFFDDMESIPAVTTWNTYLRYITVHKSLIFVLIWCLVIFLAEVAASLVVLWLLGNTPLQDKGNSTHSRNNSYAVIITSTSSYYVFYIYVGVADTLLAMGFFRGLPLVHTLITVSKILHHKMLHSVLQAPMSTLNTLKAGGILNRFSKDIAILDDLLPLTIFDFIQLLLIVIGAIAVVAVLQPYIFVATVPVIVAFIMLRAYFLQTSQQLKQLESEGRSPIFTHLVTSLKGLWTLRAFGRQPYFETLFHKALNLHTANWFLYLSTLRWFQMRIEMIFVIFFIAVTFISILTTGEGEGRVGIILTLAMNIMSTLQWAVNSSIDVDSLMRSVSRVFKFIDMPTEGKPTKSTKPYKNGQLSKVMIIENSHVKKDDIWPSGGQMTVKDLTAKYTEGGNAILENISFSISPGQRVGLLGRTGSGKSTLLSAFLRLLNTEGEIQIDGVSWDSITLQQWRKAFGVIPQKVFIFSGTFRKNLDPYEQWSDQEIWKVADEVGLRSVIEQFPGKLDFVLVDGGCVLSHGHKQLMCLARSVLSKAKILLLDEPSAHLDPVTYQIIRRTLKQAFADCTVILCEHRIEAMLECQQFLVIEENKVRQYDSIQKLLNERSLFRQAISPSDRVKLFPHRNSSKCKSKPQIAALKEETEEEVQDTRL
Method: To verify the possibility that the title compounds may act as correctors in CFBE41o-, overexpressing F508del and the high sensitivity halide-sensing yellow fluorescent protein (HS-YFP) YFP-H148Q/I152L, we examined the effect of 48 h preincubation with vehicle or the TMA analogs or TMA or VX809 (Lumacaftor), as a positive control.
At the time of the assay, the correction of the F508del-CFTR function was evaluated in single-cell analysis by measuring the decrease in YFP fluorescence after the concomitant addition of extracellular iodide and the activating cocktail (20 μM forskolin and 5 μM VX770), in the presence or absence of the 10 μM CFTR inhibitor, CFTRinh-172. […] At least two derivatives show CFTR activity similar to that of the parent TMA.
The effect of TMA analogs on CFTR function was tested in CFBE41o- overexpressing F508del and the high sensitivity halide-sensing yellow fluorescent protein (HS-YFP) YFP-H148Q/I152L (a generous gift from N. Pedemonte, Gaslini Institute, Genova, Italy). YFP CF cells were seeded on round glass coverslips and preincubated for 48 h with vehicle or test compounds or VX809 or TMA. At the time of the assay, cells were washed in Dulbecco’s PBS (in mM: 137 NaCl, 2.7 KCl, 8.1 Na2HPO4, 1.5 KH2PO4, 1 CaCl2, and 0.5 MgCl2, pH 7.4) and subsequently incubated with a stimulation cocktail (20 μM forskolin and 5 μM VX770) in the presence and absence of 10 μM CFTR inhibitor, CFTRInh-172 (Sigma), for 30 min. The coverslips were then transferred on a Nikon TMD inverted microscope through a Nikon Fluor 40 objective. The signal was acquired with a Hamamatsu C2400–97 charge-coupled intensified video camera at a rate of 1 frame/3 s. The fluorescence coming from every single cell was analyzed by custom software (Spin, Vicenza, Italy). The results are presented as transformed data to obtain the percentage signal variation (Fx) relative to the time of addition of the stimulus, according to the equation: Fx = ([Ft − Fo]/Fo) × 100, where Ft and Fo are the fluorescence values at time t and at the time of stimulus addition, respectively. The assay of each sample consists of a continuous 99-s fluorescence reading with 30 s before and 69 s after injection of the iodide-rich Dulbecco’s PBS (in mM: 137 NaI, 2.7 KCl, 8.1 Na2HPO4, 1.5 KH2PO4, 1 CaCl2, and 0.5 MgCl2, pH 7.4) to reach a final iodide concentration of 50 mM [20]. The different sensitivity of HS-YFP toward iodide and chloride allows assays to be performed by measuring the transport of anions through the plasma membrane as changes in cell fluorescence. For this assay, cells expressing HS-YFP are equilibrated in a physiological chloride-rich saline solution (e.g., Dulbecco’s PBS). During fluorescence reading, cells are exposed to a high concentration of iodide. Iodide influx quenches the cell fluorescence with a rate that depends on the permeability of the cell membrane to halides, and therefore, on the activity of the anion channels or transporters.
Figure 4 Evaluation of different TMA analogs as F508del CFTR correctors in CFBE41o- YFP-F508del cells. Correction of F508del-CFTR function was assessed, in a single cell, by measuring the decrease in YFP fluorescence upon addition of extracellular iodide and with the activating cocktail, in the presence or absence of CFTR inhibitor, CFTRInh-172. Iodide influx was tested under control condition (vehicle) or after 48 h incubation with the correctors 200 nM or 1 μM VX809. The YFP fluorescence decay rate was calculated by fitting the fluorescence data with an exponential function of time courses. CFTR activity was obtained by the difference between the fluorescence decay rate of YFP in the presence and absence of CFTRInh-172. Fluorescence coming from every single cell of at least five cells per field was recorded. Each bar corresponds to the mean ± SEM of data points coming from at least three different experiments (5–10 different cells/each experiment). […]

SMILES | photoadduct formation with DNA upon UVA irradiation [1] | F508del CFTR rescue (corrector) activity [2] | F508del CFTR rescue (corrector) activity ([2]; listed as 12) | reduction in YFP fluorescence induced by iodide influx compared to vehicle ([2]; 48 h treatment, representative time courses) | F508del CFTR rescue (corrector) activity ([2]; listed as 25)
Cc1cc(=O)oc2c1cc(-c1ccccc1)c1occ(C)c12 [6-PhDMA] | only the unchanged bands | inactive | – | – | –
Cc1cc2c(-c3ccccc3)cc(=O)oc2c2c(C)coc12 [4-PhDMA] | only the unchanged bands | active; also recorded: most active derivatives of the series | promising F508del CFTR rescue ability | greater reduction in YFP fluorescence | –
Cc1cc(=O)oc2c1cc(-c1ccc(N)cc1)c1occ(C)c12 [pANDMA] | only the unchanged bands | most active derivatives of the series | – | – | promising F508del CFTR rescue ability
